From patent US9375006B2, “5- halogenopyrazole benzofuranyl carboxamides” (BAYER CROPSCIENCE AG, priority 2012, dated 2016)

Legend:
[1] = test system: Puccinia recondita; assay: In vivo preventive test on Puccinia recondita (brown rust on wheat); conditions: wheat plants, preventive spray, grading 12 days after contamination
Method: (§1) The active ingredients tested are prepared by homogenization in a mixture of acetone/tween/DMSO, and then diluted with water to obtain the desired active material concentration.
Wheat plants (“Scipion” variety), sown in starter cups on a 50/50 peat soil-pozzolana substrate and grown at 22° C., are treated at the 1-leaf stage (10 cm height) by spraying with the active ingredient prepared as described above. Plants, used as controls, are treated with the mixture of acetone/tween/DMSO/water not containing the active material.
(§2) After 24 hours, the plants are contaminated by spraying the leaves with an aqueous suspension of Puccinia condita spores (100 000 spores per ml). The spores are collected from an infected plant and are suspended in water containing 2.5 ml/l of Tween 80 at 10%. The contaminated wheat plants are incubated for 24 hours at 20° C. and at 100% relative humidity, and then for 10 days at 20° C. and at 70-80% relative humidity.
(§3) Grading (% of efficacy) is carried out 12 days after the contamination, in comparison with the control plants.

[2] = test system: Uromyces appendiculatus; assay: In vivo preventive test on Uromyces appendiculatus (bean rust); conditions: bean plants, preventive spray, grading 11 days after contamination
Method: as §1
Bean plants (“Saxa” variety), sown in starter cups on a 50/50 peat soil-pozzolana substrate and grown at 24° C., are treated at the 2-leaf stage (9 cm height) by spraying with the active ingredient prepared as described above. Plants, used as controls, are treated with the mixture of acetone/tween/DMSO/water not containing the active material.
as §2, with “of Uromyces appendiculatus” for “of Puccinia condita”, “spores (150” for “spores (100”, “from” for “from an”, “infected plants” for “infected plant”, “contaminated bean” for “contaminated wheat”
Grading (% of efficacy) is carried out 11 days after the contamination, in comparison with the control plants.

[3] = logP by HPLC on reversed phase columns (EEC directive 79/831 Annex V.A8); assay type: physicochemical; conditions: method [a]: LC-MS at pH 2.7, 0.1% formic acid in water / acetonitrile; for chromatographic logP: reversed phase HPLC columns
Method: Measurement of log P values was performed according EEC directive 79/831 Annex V.A8 by HPLC (High Performance Liquid Chromatography) on reversed phase columns with the following methods: ^[a] Measurement of LC-MS was done at pH 2.7 with 0.1% formic acid in water and with acetonitrile (contains 0.1% formic acid) as eluent with a linear gradient from 10% acetonitrile to 95% acetonitrile. ^[b] Measurement with LC-MS was done at pH 7.8 with 0.001 molar ammonium hydrogen carbonate solution in water as eluent with a linear gradient from 10% acetonitrile to 95% acetonitrile.

[4] = test system: Pyrenophora teres; assay: In vivo preventive test on Pyrenophora teres (net blotch on barley); conditions: 100 ppm, barley plants, preventive spray, grading 14 days after contamination
Method: Barley plants (“Plaisant” variety), sown in starter cups on a 50/50 peat soil-pozzolana substrate and grown at 22° C., are treated at the 1-leaf stage (10 cm height) by spraying with the active ingredient prepared as described above. Plants, used as controls, are treated with the mixture of acetone/tween/DMSO/water not containing the active material. After 24 hours, the plants are contaminated by spraying the leaves with an aqueous suspension of Pyrenophora teres spores (12 000 spores per ml). The spores are collected from a 12-day-old culture. The contaminated barley plants are incubated for 48 hours at 20° C. and at 100% relative humidity, and then for 12 days at 20° C. at 70-80% relative humidity. Grading (% of efficacy) is carried out 14 days after the contamination, in comparison with the control plants.

[5] = test system: Sphaerotheca fuliginea; assay: In vivo preventive test on Sphaerotheca fuliginea (powdery mildew on cucurbits); conditions: 100 ppm, gherkin plants, preventive spray, grading 12 days after contamination
Method: (§4) The active ingredients tested are prepared by homogenization in a mixture of acetone/tween/DMSO and then diluted with water to obtain the desired active material concentration.
(§5) Gherkin plants (“Vert petit de Paris” variety), sown in starter cups on a 50/50 peat soil-pozzolana substrate and grown at 24° C., are treated at the Z11 cotyledon stage by spraying with the active ingredient prepared as described above. Plants, used as controls, are treated with the mixture of acetone/tween/DMSO/water not containing the active material.
After 24 hours, the plants are contaminated by spraying the cotyledons with an aqueous suspension of Sphaerotheca fuliginea spores (100 000 spores per ml). The spores are collected from infected plants. The contaminated gherkin plants are incubated at about 20° C. and at 70-80% relative humidity.
as §3

[6] = test system: Botrytis cinerea; assay: In vivo preventive test on Botrytis cinerea (grey mould), gherkin plants; conditions: 100 ppm, preventive spray, grading 4 to 5 days after contamination
Method: as §4, §5
After 24 hours, the plants are contaminated by spraying the cotyledons with an aqueous suspension of cryopreserved Botrytis cinerea spores (50 000 spores per ml). The spores are suspended in a nutrient solution composed of 10 g/L of PDB, 50 g/L of D-Fructose, 2 g/L of NH4NO3 and 1 g/L of KH2PO4. The contaminated gherkin plants are incubated at 17° C. and at 90% relative humidity.
Grading (% of efficacy) is carried out 4 to 5 days after the contamination, in comparison with the control plants.

[7] = test system: Alternaria brassicae; assay: In vivo preventive test on Alternaria brassicae (leaf spot on radish); conditions: 100 ppm, radish plants, preventive spray, grading 6 days after contamination
Method: Radish plants (“Pernod Clair” variety), sown in starter cups on a 50/50 peat soil-pozzolana substrate and grown at 17° C., are treated at the cotyledon stage by spraying with the active ingredient prepared as described above. Plants, used as controls, are treated with the mixture of acetone/tween/DMSO/water not containing the active material. After 24 hours, the plants are contaminated by spraying the cotyledons with an aqueous suspension of Alternaria brassicae spores (50 000 spores per ml). The spores are collected from a 15-day-old culture. The contaminated radish plants are incubated at 20° C. and at 100% relative humidity. Grading (% of efficacy) is carried out 6 days after the contamination, in comparison with the control plants.

SMILES | Eff. % ([1]; 500 ppm) | Eff. % ([2]; 500 ppm) | logP [3] | Eff. % ([1]; 100 ppm) | Eff. % [4] | Eff. % [5] | Eff. % [6] | Eff. % ([2]; 100 ppm) | Eff. % [7] | chromatographic logP [3]
Cn1nc(C(F)F)c(C(=O)Nc2cccc3c2COC3(C)C)c1F [Example 3] | 100% | 100% | 2.35[a] |  |  |  |  |  |  | 
Cn1nc(C(F)F)c(C(=O)Nc2cccc3c2COC3(C)C)c1Cl [Example 4] | 100% | 100% | 2.55[a] |  |  |  |  |  |  | 
CC1OC(C)(C)c2cccc(NC(=O)c3c(C(F)F)nn(C)c3Br)c21 (centres unmarked) [Example 5] | 97% | 100% | 2.64[a] |  |  |  |  |  |  | 
Cn1cc(C(=O)Nc2cccc3c2COC3(C)C)c(C(F)F)n1 [Example 7] | 98% | 100% | 2.1[a] |  |  |  |  |  |  | 
CC1OC(C)(C)c2cccc(NC(=O)c3cn(C)nc3C(F)F)c21 (centres unmarked) [Example 10] | 94% | 95% | 2.15[a] |  |  |  |  |  |  | 
CC(C)C1OC(C)(C)c2cccc(NC(=O)c3c(C(F)F)nn(C)c3Cl)c21 (centres unmarked) [Example 14] |  |  | 3.33[a] | 98% | 92% | 100% | 93% | 100% | 75% | 
CCC1OC(C)(C)c2cccc(NC(=O)c3c(C(F)F)nn(C)c3Cl)c21 (centres unmarked) [Example 15] |  |  | 2.94[a] | 100% | 92% | 98% |  | 100% | 75% | 
CCC1OC(C)(C)c2cccc(NC(=O)c3cn(C)nc3C(F)F)c21 (centres unmarked) [Example 16] |  |  |  | 98% | 83% | 98% | 83% | 100% |  | 
CC(C)C1OC(C)(C)c2cccc(NC(=O)c3c(C(F)F)nn(C)c3Br)c21 (centres unmarked) [Example 17] |  |  | 3.33[a] | 94% | 83% |  |  | 100% |  | 
CCC1OC(CC)(CC)c2cccc(NC(=O)c3c(C(F)F)nn(C)c3Cl)c21 (centres unmarked) [Example 18] |  |  | 3.87[a] | 98% | 83% | 100% |  | 100% | 75% | 
CCC1OC(CC)(CC)c2cccc(NC(=O)c3c(C(F)F)nn(C)c3Br)c21 (centres unmarked) [Example 19] |  |  | 3.87[a] | 98% |  | 83% |  | 100% | 75% | 
CCC1OCc2cccc(NC(=O)c3c(C(F)F)nn(C)c3Br)c21 (centres unmarked) [Example 20] |  |  | 2.96[a] | 98% |  |  |  | 100% |  | 
CCC1OC(C)(C)c2cccc(NC(=O)c3c(C(F)F)nn(C)c3F)c21 (centres unmarked) [Example 21] |  |  | 2.76[a] | 98% |  | 98% | 93% | 100% |  | 
CC(C)C1OC(C)(C)c2cccc(NC(=O)c3c(C(F)F)nn(C)c3F)c21 (centres unmarked) [Example 22, 3-(difluoromethyl)-5-fluoro-N-(3-isopropyl-1,1-dimethyl-1,3-dihydro-2-benzofuran-4-yl)-1-methyl-1H-pyrazole-4-carboxamide] |  |  |  | 98% | 97% | 100% | 98% | 99% |  | 3.11
CCC1OC(CC)(CC)c2cccc(NC(=O)c3cn(C)nc3C(F)F)c21 (centres unmarked) [Example 23] |  |  | 3.26[a] | 98% | 92% | 100% | 97% | 100% | 88% | 
CCC1OC(CC)(CC)c2cccc(NC(=O)c3c(C(F)F)nn(C)c3F)c21 (centres unmarked) [Example 24] |  |  | 3.65[a] | 98% | 83% | 100% | 87% | 100% | 75% | 
CCC1OC(CC)(CC)c2cccc(NC(=S)c3cn(C)nc3C(F)F)c21 (centres unmarked) [Example 26, 3-(difluoromethyl)-1-methyl-N-(1,1,3-triethyl-1,3-dihydro-2-benzofuran-4-yl)-1H-pyrazole-4-carbothioamide] |  |  |  |  |  |  |  |  |  | 3.76
